Data set [1] addresses T1, Myeloperoxidase (Homo sapiens) (UniProt P05164).
T1 sequence (whole entry): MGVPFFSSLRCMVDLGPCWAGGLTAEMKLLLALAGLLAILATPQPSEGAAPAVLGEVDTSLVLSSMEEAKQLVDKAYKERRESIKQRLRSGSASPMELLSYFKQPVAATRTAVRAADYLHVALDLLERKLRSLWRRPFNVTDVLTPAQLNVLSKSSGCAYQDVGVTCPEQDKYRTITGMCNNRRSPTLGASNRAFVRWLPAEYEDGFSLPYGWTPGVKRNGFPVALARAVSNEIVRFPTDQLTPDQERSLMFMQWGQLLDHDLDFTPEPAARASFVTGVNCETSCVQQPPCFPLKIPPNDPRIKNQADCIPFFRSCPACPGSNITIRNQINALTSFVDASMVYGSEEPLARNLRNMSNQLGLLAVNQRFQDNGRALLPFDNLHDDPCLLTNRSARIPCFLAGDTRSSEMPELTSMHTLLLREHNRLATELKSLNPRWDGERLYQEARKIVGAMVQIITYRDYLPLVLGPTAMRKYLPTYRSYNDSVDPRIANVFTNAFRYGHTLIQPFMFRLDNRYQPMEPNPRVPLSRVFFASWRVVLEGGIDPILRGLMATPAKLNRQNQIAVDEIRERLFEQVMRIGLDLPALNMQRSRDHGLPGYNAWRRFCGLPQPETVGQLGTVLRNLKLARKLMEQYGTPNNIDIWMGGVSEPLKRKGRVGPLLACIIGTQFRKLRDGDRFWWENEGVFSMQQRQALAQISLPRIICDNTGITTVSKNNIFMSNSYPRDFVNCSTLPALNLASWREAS
The experiment in a line: Inhibition of recombinant MPO (unknown origin) assessed as reduction in taurine chloramine production at 5 uM preincubated with enzyme and taurine followed by H2O2 addition measured after 5 mins relative to control.

The target of data set [2] is T2, Myeloperoxidase (Homo sapiens, UniProt P05164).
T2 sequence (P05164 whole entry): T1 sequence (whole entry)
The experiment in a line: Inhibition of recombinant MPO (unknown origin) assessed as reduction in taurine chloramine production preincubated with enzyme and taurine followed by H2O2 addition measured after 5 mins.

The target in data set [3] is T1, Myeloperoxidase (Homo sapiens). Nature of the data set: Inhibition of recombinant MPO (unknown origin) assessed as reduction in TMB peroxidation by measuring residual activity at 5 uM in absence of H2O2 incubated for 5 mins followed by 100 fold enzyme dilution relative to control.
Data set [4] shares this target. The experiment in a line: Inhibition of recombinant MPO (unknown origin) assessed as reduction in TMB peroxidation by measuring residual activity at 5 uM in presence of H2O2 incubated for 5 mins followed by 100 fold enzyme dilution relative to control.
Data set [5] shares this target. Nature of the data set: Inhibition of recombinant MPO (unknown origin) assessed as reduction in TMB peroxidation by measuring residual activity at 5 uM in presence of H2O2 and NaCl incubated for 5 mins followed by 100 fold enzyme dilution relative to control.
Data set [6] deals with T2, Myeloperoxidase. Nature of the data set: Inhibition of recombinant MPO (unknown origin) assessed as reduction in LDL oxidation in presence of H2O2 and HCl after 5 mins by ELISA. For orientation: ELISA stands for enzyme-linked immunosorbent assay.
The target in the next data set is Lactoperoxidase (Bos taurus, UniProt P80025). Nature of the data set: Inhibition of bovine milk LPO assessed as reduction in NaOSCN production in presence of H2O2/NaSCN after 5 mins.
For data set [7], the target named is T2, Myeloperoxidase. The experiment in a line: Inhibition of MPO in human neutrophils assessed as reduction in HOCl production preincubated for 30 mins followed by H2O2 addition by APF staining based flow cytometry. A general note: In flow cytometry, cells or beads pass a laser one at a time.
In data set [8] the test system is Neutrophil. The experiment in a line: Induction of apoptosis in human neutrophils assessed as compound concentration required for effect after 30 mins by JC1 staining based flow cytometry. Format: cell-based. The following applies: 0.5 h.
Another data set deals with NHDF. The experiment in a line: Cytotoxicity against NHDF assessed as reduction in cell viability after 72 hrs by MTT assay. Format: cell-based. The following applies: Homo sapiens.
The test system of data set [9] is Neutrophil. Nature of the data set: Induction of apoptosis in human neutrophils up to 1 mM after 30 mins by JC1 staining based flow cytometry. Format: cell-based. Conditions: 0.5 h.
For data set [10], the target named is T1, Myeloperoxidase (Homo sapiens). The experiment in a line: Inhibition of MPO (unknown origin) assessed as apparent bi-molecular rate constant for PorFe(4)=O radical reduction by stopped-flow spectroscopic analysis.
The test system of data set [11] is Neutrophil. Nature of the data set: Induction of apoptosis in human neutrophils assessed as increase in necrotic cells at >= 50 uM after 30 mins by JC1 staining based flow cytometry. Format: cell-based. The following applies: 0.5 h.
Data set [12] can be described thus: Selectivity ratio of IC50 for bovine milk LPO to IC50 for recombinant MPO (unknown origin).
The target of data set [13] is T1, Myeloperoxidase (Homo sapiens). The following applies: 5 uM.
Description: Irreversible inhibition of recombinant MPO (unknown origin) assessed as reduction in guaiacol peroxidation by measuring enzyme activity recovery at 5 uM incubated for 20 mins followed by 200 fold dilution measured for 10 mins
For data set [14] the target is unchanged. Conditions: 1 to 5 uM.
Description: Inhibition of MPO in human neutrophils assessed as reduction in HOCl production at 1 to 5 uM preincubated for 30 mins followed by H2O2 addition by APF staining based flow cytometry relative to control
The subject of a further data set is Plasma. Nature of the data set: Plasma concentration in po dosed human. Format: ADME, organism-based. The following applies: in vivo.
Data set [15] has as its target T1, Myeloperoxidase (Homo sapiens). Nature of the data set: Inhibition of MPO (unknown origin) assessed as apparent bi-molecular rate constant for PorFe(4)-OH reduction by stopped-flow spectroscopic analysis.

The source made the active and inactive calls. The rule behind the calls is not given here.

As for `CN(C)CCCN1c2ccccc2Sc2ccc(C(F)(F)F)cc21`, the inhibition in data set [1] was 12.3%.

As for `Fc1ccc2[nH]c([C@@H]3CCN(CC4NC=CN4)C3)nc2c1`, the half-maximal inhibitory concentration (IC50) at Myeloperoxidase [2] is 50 nM; at Myeloperoxidase [6], 120 nM; on Lactoperoxidase, more than 5000 nM; on Myeloperoxidase [7], 314000 nM; with NHDF, more than 50000 nM. Moreover, the Activity in [3] is 83%; in data set [4] it was 84%; in data set [5], 84%; in the data set with Neutrophil [8] it was more than 50 µM; in the data set on Neutrophil [9], “Non-Toxic”.

`COc1ccc2c(C)nc(NC(=N)N)nc2c1`: the IC50 came to 44 nM on Myeloperoxidase [2]; 90 nM at Myeloperoxidase [6]; 3200 nM at Lactoperoxidase; 93100 nM at Myeloperoxidase [7]; 17000 nM in the data set on NHDF. In addition, the Activity in data set [3] was 84%; in data set [4] it was 4%; in data set [5], 5%; in the data set with Neutrophil [8] it was more than 50 µM; in the data set with Neutrophil [9] it was “Non-Toxic”; in the data set on Neutrophil [11] it was “Toxic”. For the same compound, the Kapp in data set [10] came out at 1.9 ×10⁶ /M/s. For the same compound, in data set [12], the Ratio IC50 was 73. Further, the inhibition result in [13] is “Active”. This compound gave an inhibition in [14] of 67 to 71%.

With `O=C(N/N=C/c1ccc([N+](=O)[O-])o1)c1ccc(O)cc1` [NIFUROXAZIDE], on Myeloperoxidase [2], the IC50 is more than 5000 nM.

For `Cc1nc(N=C(N)N)nc2cc(F)ccc12`, the half-inhibitory concentration (IC50) on Myeloperoxidase [2] is 40 nM; at Lactoperoxidase it was 3900 nM. In [12], the Ratio IC50 came out at 30.

Regarding `CCN1CCC[C@H]1CNC(=O)c1cc(S(N)(=O)=O)ccc1OC` [LEVOSULPIRIDE], the IC50 at Myeloperoxidase [2] stood at 7680 nM.

In the case of `CCN(CC)CCNC(=O)c1cc(Cl)c(N)cc1OC` [METOCLOPRAMIDE], the IC50 on Myeloperoxidase [2] is 350 to 1000 nM; on Myeloperoxidase [6], more than 5000 nM; at Lactoperoxidase it was more than 5000 nM; with NHDF, more than 50000 nM. Also, in the data set on Plasma, the concentration was 200 to 400 nM.

Consider `O=c1c(O)c(-c2ccc(O)c(O)c2)oc2cc(O)cc(O)c12` [QUERCETIN], for which the concentration for half-maximal inhibition (IC50) was 1150 nM at Myeloperoxidase [2], 3100 nM at Myeloperoxidase [6], 6100 nM on Lactoperoxidase and more than 50000 nM with NHDF. The figures for the Activity in data set [3], in [4] and in data set [5] were 72%, 78% and 79%, respectively. The Ratio IC50 in data set [12] was 5.

On to `O=c1c(O)c(-c2ccc(O)cc2)oc2cc(O)cc(O)c12` [KAEMPFEROL], for which, on Myeloperoxidase [2], the IC50 was 2240 nM. The Activity in data set [3] turned out to be 78%; in data set [4], 81%; in data set [5], 84%.

With `C[C@H](COc1ccccc1)N[C@@H](C)[C@@H](O)c1ccc(O)cc1`, the inhibition in data set [1] was 5.32%.

`C[C@H]1CN(c2cc3c(cc2F)c(=O)c(C(=O)O)cn3C2CC2)CCN1`: the IC50 on Myeloperoxidase [2] was more than 5000 nM.

In the case of `CSc1ccc2c(c1)N(CC[C@H]1CCCCN1C)c1ccccc1S2`, the half-inhibitory concentration (IC50) at Myeloperoxidase [2] is more than 5000 nM. For the same compound, in data set [1], the inhibition amounted to 24.2%. Besides, the values for the Kapp in data set [10] and in [15] were 5.2 ×10⁶ /M/s and 1.7 ×10⁴ /M/s, respectively.

For the compound `Cc1nc(N=C(N)N)nc2ccc(Br)cc12`, the concentration for half-maximal inhibition (IC50) on Myeloperoxidase [2] is 756 nM.

Regarding `O=c1cc(-c2ccc(O)cc2)oc2cc(O)ccc12`, the IC50 on Myeloperoxidase [2] turned out to be 5790 nM.

`Cc1nc(N=C(N)N)nc2ccc(F)cc12`: on Myeloperoxidase [2], the concentration for half-maximal inhibition (IC50) turned out to be 145 nM.

For `c1c2c(cc3c4n(nc13)CCS4)OCO2`, the IC50 at Myeloperoxidase [2] stood at 85 nM.

With `O=c1cc(-c2ccc(O)cc2)oc2cc(O)cc(O)c12` [APIGENIN], the IC50 on Myeloperoxidase [2] worked out at 3800 nM; on Lactoperoxidase it was 17800 nM. Further, the Ratio IC50 in data set [12] worked out at 5.6.

On to `Cc1nc(NC(=N)N)nc2ccc(Cl)cc12`, for which the IC50 at Myeloperoxidase [2] turned out to be 630 nM.

Regarding `Cc1ccc(-c2cc(C(F)(F)F)nn2-c2ccc(S(N)(=O)=O)cc2)cc1`, the inhibition in [1] was determined as 11%.

`Fc1ccc([C@@H]2CCNC[C@H]2COc2ccc3c(c2)OCO3)cc1` [PAROXETINE]: the IC50 at Myeloperoxidase [2] came out at 20 nM.

As to `NCCCCc1c[nH]c2ccc(F)cc12`, the IC50 on Myeloperoxidase [2] turned out to be 8 nM.

Turning to `Nc1cc(=O)[nH]c(CSc2ccc(F)c3ccccc23)n1`, in [1], the inhibition was 37.2%.

Consider `N#CC1=C(N)Oc2cc(O)ccc2C1c1cccc(C(F)(F)F)c1` (stereo not drawn), for which, on Myeloperoxidase [2], the half-inhibitory concentration (IC50) stood at 10100 nM.

`CCn1cc(C(=O)O)c(=O)c2cc(F)c(N3CCN[C@@H](C)C3)c(F)c21`: at Myeloperoxidase [2], the IC50 was more than 5000 nM. For the same compound, in data set [1], the inhibition entry was “inactive”. For the same compound, the Kapp was 3.1 ×10⁴ /M/s in data set [10] and 1.2 ×10³ /M/s in data set [15].

As to `Cc1nc(NC(=N)N)nc2ccccc12`, the IC50 at Myeloperoxidase [2] worked out at 900 nM.

Regarding `CC(C)NCC(=O)c1nc2cc(F)ccc2[nH]1`, the 50% inhibitory concentration (IC50) at Myeloperoxidase [2] was 130 nM; on Lactoperoxidase it was more than 5000 nM; in the data set on NHDF it was more than 50000 nM. The Activity in data set [3] amounted to 79%; in data set [4] it was 87%; in data set [5] it was 81%.

With `O[C@@H]1CN[C@H](c2nc(Cc3ccc(F)cc3Cl)no2)C1`, at Myeloperoxidase [2], the half-inhibitory concentration (IC50) is 4680 nM.

`COc1cc(N[C@H](C)CCCN)c2ncccc2c1`: the IC50 on Myeloperoxidase [2] was 300 nM; on Lactoperoxidase, 800 nM; with NHDF, more than 50000 nM. The Activity in [3] worked out at 86%; in data set [4], 91%; in [5] it was 86%. The Ratio IC50 in data set [12] came out at 3.

For `NNc1nncc2ccccc12` [HYDRALAZINE], the values for the Activity in data set [3], in data set [4] and in data set [5] were 76%, 9% and 6%, respectively. Also, the figures for the IC50 on Myeloperoxidase [6], at Lactoperoxidase and with NHDF were 2360 nM, 1200 nM and more than 50000 nM, respectively. For the same compound, the Kapp in [10] was 7.1 ×10⁶ /M/s. The Ratio IC50 in data set [12] stood at 1.3.

As to `Cc1cccc(Nc2ccccc2C(=O)O)c1C` [MEFENAMIC ACID], the IC50 on Myeloperoxidase [2] was 980 nM; on Myeloperoxidase [6] it was 2210 nM. The Activity in data set [3] is 87%; in [4], 82%; in [5] it was 87%.

Turning to `Cc1nc(N=C(N)N)nc2cc(Cl)ccc12`, the half-inhibitory concentration (IC50) on Myeloperoxidase [2] came to 96 nM.

For `Cc1nc(NC(=N)N)nc2cc(Br)ccc12`, the IC50 at Myeloperoxidase [2] was 106 nM.

With `Fc1ccc2oc([C@H]3CCNC3)nc2c1`, the concentration for half-maximal inhibition (IC50) was 1740 nM on Myeloperoxidase [2] and more than 50000 nM with NHDF.

What is called inhibition is the relative decrease from the control value, in per cent. Usually IC50 stands for the concentration at which inhibition is half-maximal.

The values are drawn from ChEMBL document CHEMBL4011652, “Discovery of Novel Potent Reversible and Irreversible Myeloperoxidase Inhibitors Using Virtual Screening Procedure” (J Med Chem, 2017).
